Results on one molecule are retold here after PMC9448382, “Fluorosulfate-containing pyrazole heterocycles as selective BuChE inhibitors: structure-activity relationship and biological evaluation for the treatment of Alzheimer’s disease” (Journal of Enzyme Inhibition and Medicinal Chemistry, 2022).

The target in one assay is T1, AChE from electric eel (Electrophorus electricus, UniProt O42275).
T1 construct: AChE from electric eel (C3389-500UN; Sigma); purchased Sigma C3389-500UN
The assay can be described thus: EeAChE inhibition assay (Ellman's method). The conditions noted are these: read-out: AChE % inhibition at 20 µM, 20 µM, na = no inhibitory activity at 20 µM. It is filed as biochemical. On the procedure:
(§1) According to Ellman's method, assays were carried out on AChE from electric eel (C3389-500UN; Sigma) and BuChE from horse serum (C4290-1KU; Sigma). On a final volume of 500 μL, the experiment was carried out in 48-well plates. EeAChE or eqBuChE, 0.036 U/mL, and 0.1 M pH 8 phosphate buffer were added to each well. At 37 °C, they were pre-incubated for 20 min at various chemical concentrations. […] Along with the enzymatic breakdown of ACh or BuCh, the DTNB creates the yellow anion 5-thio-2-nitrobenzoic acid. In a Biotek Synergy HTX Multi-Mode reader, changes in absorbance were detected at 410 nm. Inhibition curves were used to calculate the IC50 values (log inhibitor concentration vs percent of inhibition). The same conditions were used in a control experiment without the inhibitor, and the blank comprised buffer, DMSO, DTNB, and substrate.
(§2) The IC50 values were calculated by SPSS 17.0.
On the technique in general: Ellman's reagent forms a yellow product with free thiols.

For another assay, the target named is T2, BuChE from horse serum (Equus caballus, UniProt P81908).
T2 construct: BuChE from horse serum (C4290-1KU; Sigma); purchased Sigma C4290-1KU; host or cells: horse serum
T2 sequence (P81908 whole entry): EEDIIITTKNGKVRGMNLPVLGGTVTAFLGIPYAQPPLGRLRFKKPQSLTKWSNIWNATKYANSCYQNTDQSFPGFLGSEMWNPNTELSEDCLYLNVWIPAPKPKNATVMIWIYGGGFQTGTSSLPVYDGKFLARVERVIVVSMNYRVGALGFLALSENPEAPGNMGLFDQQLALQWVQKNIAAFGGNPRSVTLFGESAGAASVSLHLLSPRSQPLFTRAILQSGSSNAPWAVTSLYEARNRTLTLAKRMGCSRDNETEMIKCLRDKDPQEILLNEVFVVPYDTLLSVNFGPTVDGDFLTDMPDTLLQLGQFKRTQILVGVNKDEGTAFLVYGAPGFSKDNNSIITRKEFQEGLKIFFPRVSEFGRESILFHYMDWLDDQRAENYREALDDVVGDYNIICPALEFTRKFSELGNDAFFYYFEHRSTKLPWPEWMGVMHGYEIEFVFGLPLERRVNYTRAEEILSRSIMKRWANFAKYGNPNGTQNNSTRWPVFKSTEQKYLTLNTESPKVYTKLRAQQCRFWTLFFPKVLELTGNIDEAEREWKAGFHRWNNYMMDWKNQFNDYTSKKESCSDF
The assay can be described thus: biochemical. It is filed as biochemical. As for the experimental part:
as §1, §2

The target of assay [1] is T3, recombinant human AChE (hAChE) (Homo sapiens, UniProt P22303).
T3 construct: purchased Sigma C1682
T3 sequence (P22303 32-614): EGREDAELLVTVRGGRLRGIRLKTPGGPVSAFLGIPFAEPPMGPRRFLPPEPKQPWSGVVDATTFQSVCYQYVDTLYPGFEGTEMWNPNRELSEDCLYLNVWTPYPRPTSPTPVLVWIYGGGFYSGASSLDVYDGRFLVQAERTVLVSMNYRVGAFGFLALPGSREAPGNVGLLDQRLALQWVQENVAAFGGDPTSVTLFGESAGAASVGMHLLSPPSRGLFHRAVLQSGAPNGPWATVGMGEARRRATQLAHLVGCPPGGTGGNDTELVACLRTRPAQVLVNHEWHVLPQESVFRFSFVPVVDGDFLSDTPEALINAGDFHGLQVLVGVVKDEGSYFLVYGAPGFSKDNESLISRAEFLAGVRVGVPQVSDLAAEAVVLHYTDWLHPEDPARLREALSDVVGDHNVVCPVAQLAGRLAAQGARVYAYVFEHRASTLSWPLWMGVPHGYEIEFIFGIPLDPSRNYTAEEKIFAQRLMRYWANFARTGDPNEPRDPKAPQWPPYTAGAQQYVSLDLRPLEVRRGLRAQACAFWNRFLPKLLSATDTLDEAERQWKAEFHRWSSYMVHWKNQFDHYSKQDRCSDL
The assay can be described thus: hAChE inhibition assay. It is filed as biochemical. As for the experimental part:
With 0.1 M pH 8 PBS, a DTNB solution (5 μM) was produced. Dissolve the test compound in DMSO to prepare a concentration of 2 × 10^−1 M stock solution. The solution was diluted in ethanol to five concentrations of 200, 100, 10, 1 and 0.1 μM, respectively. Measurement was carried out with 96-well plates, add 40 μL buffer, 10 μL test compound at a series of concentrations, and 10 μL AChE/BuChE in sequence. The mixture was then incubated at 37 °C for 10 min. Then add 20 μL DTNB, incubation at 37 °C for 10 min. […] For the blank value, 10 μL of ethanol was used instead of the inhibitor solution. The percentage of enzyme activity and the logarithm of compound concentration were used to express the inhibitory activity of compounds. IC50 was calculated by SPSS17.0.

The target of another assay is T4, eqBuChE (Equus caballus, UniProt P81908).
T4 construct: BuChE from horse serum (C4290-1KU; Sigma); purchased Sigma C4290-1KU; host or cells: horse serum
T4 sequence (P81908 whole entry): as the sequence (P81908 whole entry) above
Briefly: Kinetic study of eqBuChE inhibition. It is filed as biochemical, horse. On the procedure:
The same test settings were used for kinetic studies, with six concentrations of substrate (0.1‒1 mM) and four concentrations of inhibitor (0‒1.6 µM). The effect of different doses of compound K3 on BuChE catalytic activity at 37 °C was also investigated. The final concentration of enzyme was changed (0‒0.18 U/mL) under the same test conditions as indicated in the assay methodology. For the assessment of reversible and irreversible inhibitor binding at enzyme, different concentrations of compound K3 (0, 0.4, 0.8, and 1.6 µM) were utilised.

Entries after “also recorded” stand apart in the source; their conditions may differ.

T1 sequence (O42275 24-633): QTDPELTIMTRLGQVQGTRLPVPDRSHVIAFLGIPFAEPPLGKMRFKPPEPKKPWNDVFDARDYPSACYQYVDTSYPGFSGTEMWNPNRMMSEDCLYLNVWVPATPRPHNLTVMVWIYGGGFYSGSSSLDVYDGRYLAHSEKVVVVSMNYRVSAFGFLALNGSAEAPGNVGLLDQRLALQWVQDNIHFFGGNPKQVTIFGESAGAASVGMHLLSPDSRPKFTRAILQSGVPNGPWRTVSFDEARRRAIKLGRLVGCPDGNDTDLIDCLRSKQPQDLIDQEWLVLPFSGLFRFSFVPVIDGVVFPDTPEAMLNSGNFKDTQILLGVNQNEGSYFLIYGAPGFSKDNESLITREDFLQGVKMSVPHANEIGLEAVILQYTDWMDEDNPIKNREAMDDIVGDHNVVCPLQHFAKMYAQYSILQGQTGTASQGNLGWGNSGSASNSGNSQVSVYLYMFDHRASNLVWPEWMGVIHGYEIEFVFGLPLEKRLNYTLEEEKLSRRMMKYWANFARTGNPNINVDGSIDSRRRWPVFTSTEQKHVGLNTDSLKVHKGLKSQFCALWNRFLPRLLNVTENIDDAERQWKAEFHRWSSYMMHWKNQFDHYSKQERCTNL

A word on the inhibition: it is the relative decrease from the control value, in per cent. One may read the IC50 as the concentration that inhibits the measured activity by half. The term Ki denotes the equilibrium dissociation constant of an inhibitor or competing ligand from its target. Take `O=S(=O)(F)Oc1cc(-c2ccccc2)nn1-c1ccc(Cl)cc1` [Compound K3]: the inhibition at 20 µM on AChE from electric eel is 26.3 ± 1.4%; in assay [1] it was 31.6 ± 5.74%. Besides, on BuChE from horse serum, the half-maximal inhibitory concentration (IC50) worked out at 790 ± 320 nM. In addition, the “reversibility of BuChE inhibition” value on eqBuChE (K3 0, 0.4, 0.8, 1.6 μM, enzyme 0‒0.18 U/mL) is “reversible”. The “type of BuChE inhibition” value on eqBuChE (Lineweaver-Burk plots) was “mixed and non-competitive; also recorded: mixed, and non-competitive”. Further, the Ki at eqBuChE (Lineweaver-Burk secondary plots, read-out: dissociation constant Ki) was 770 nM.
